PubChem BioAssay AID248 (DTP/NCI, 2004)
Inconclusive results and toxic doses are left out. Rule as the data show it: active = T/C of 150% or more; inactive = T/C below 125%.

Test system: L1210 leukemia ip in BDF1 mice, survival T/C
Test: NCI In Vivo Anticancer Drug Screen. Data for tumor model L1210 Leukemia (intraperitoneal) in B6D2F1 (BDF1) mice
Conditions: endpoint: mean survival time, higher = longer survival
Procedure, shortened: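 Mice bearing the transplanted tumor received compound or vehicle. Survival of the treated group was divided by that of the vehicle-treated control group to give the ratio.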

[1] = dose: 75.0 mg/kg/injection, schedule: Q04DX003 (ip), vehicle: Klucel (hydroxypropylcellulose) (HPC)
[2] = dose: 100.0 mg/kg/injection, schedule: Q01DX001 (ip), vehicle: Klucel (hydroxypropylcellulose) (HPC)
[3] = dose: 150.0 mg/kg/injection, schedule: Q04DX003 (ip), vehicle: Klucel (hydroxypropylcellulose) (HPC)
[4] = dose: 200.0 mg/kg/injection, schedule: Q01DX001 (ip), vehicle: Klucel (hydroxypropylcellulose) (HPC)
[5] = dose: 300.0 mg/kg/injection, schedule: Q04DX003 (ip), vehicle: Klucel (hydroxypropylcellulose) (HPC)
[6] = dose: 400.0 mg/kg/injection, schedule: Q01DX001 (ip), vehicle: Klucel (hydroxypropylcellulose) (HPC)
[7] = dose: 100.0 mg/kg/injection, schedule: Q04DX002 (ip), vehicle: Klucel (hydroxypropylcellulose) (HPC)
[8] = dose: 200.0 mg/kg/injection, schedule: Q04DX002 (ip), vehicle: Klucel (hydroxypropylcellulose) (HPC)
[9] = dose: 400.0 mg/kg/injection, schedule: Q04DX002 (ip), vehicle: Klucel (hydroxypropylcellulose) (HPC)
[10] = dose: 50.0 mg/kg/injection, schedule: Q01DX009 (ip), vehicle: saline
[11] = dose: 100.0 mg/kg/injection, schedule: Q01DX009 (ip), vehicle: saline
[12] = dose: 100.0 mg/kg/injection, schedule: Q01DX009 (ip), vehicle: Klucel (hydroxypropylcellulose) (HPC)
[13] = dose: 200.0 mg/kg/injection, schedule: Q01DX009 (ip), vehicle: Klucel (hydroxypropylcellulose) (HPC)
[14] = dose: 400.0 mg/kg/injection, schedule: Q01DX009 (ip), vehicle: Klucel (hydroxypropylcellulose) (HPC)
[15] = dose: 100.0 mg/kg/injection, schedule: Q04DX003 (ip), vehicle: saline with Tween-80
[16] = dose: 200.0 mg/kg/injection, schedule: Q04DX003 (ip), vehicle: saline with Tween-80
[17] = dose: 400.0 mg/kg/injection, schedule: Q04DX003 (ip), vehicle: saline with Tween-80
[18] = dose: 100.0 mg/kg/injection, schedule: Q04DX003 (ip), vehicle: Klucel (hydroxypropylcellulose) (HPC)
[19] = dose: 100.0 mg/kg/injection, schedule: Q01DX001 (ip), vehicle: other
[20] = dose: 200.0 mg/kg/injection, schedule: Q01DX001 (ip), vehicle: other
[21] = dose: 400.0 mg/kg/injection, schedule: Q01DX001 (ip), vehicle: other
[22] = dose: 100.0 mg/kg/injection, schedule: Q04DX003 (ip), vehicle: saline

Measured: T/C

Cc1ccc(/C=N\N=C(\N)N/N=C/c2ccc(C)cc2)cc1
inactive: dose: 15.0 mg/kg/injection, schedule: Q01DX Z (ip), vehicle: carboxymethylcellulose (CMC) 95 % of control | dose: 30.0 mg/kg/injection, schedule: Q01DX Z (ip), vehicle: carboxymethylcellulose (CMC) 93 % of control | dose: 60.0 mg/kg/injection, schedule: Q01DX Z (ip), vehicle: carboxymethylcellulose (CMC) 87 % of control | dose: 120.0 mg/kg/injection, schedule: Q01DX Z (ip), vehicle: carboxymethylcellulose (CMC) 96 % of control | dose: 120.0 mg/kg/injection, schedule: Q01DX Z (oral), vehicle: carboxymethylcellulose (CMC) 101 % of control | dose: 240.0 mg/kg/injection, schedule: Q01DX Z (oral), vehicle: carboxymethylcellulose (CMC) 101 % of control | dose: 480.0 mg/kg/injection, schedule: Q01DX Z (oral), vehicle: carboxymethylcellulose (CMC) 96 % of control | dose: 960.0 mg/kg/injection, schedule: Q01DX Z (oral), vehicle: carboxymethylcellulose (CMC) 101 % of control

O=C(Nc1cccc([N+](=O)[O-])c1)N1CCCC1
inactive: dose: 100.0 mg/kg/injection, schedule: Q01DX001 (ip), vehicle: carboxymethylcellulose (CMC) 98 % of control | dose: 200.0 mg/kg/injection, schedule: Q01DX001 (ip), vehicle: carboxymethylcellulose (CMC) 102 % of control | dose: 400.0 mg/kg/injection, schedule: Q01DX001 (ip), vehicle: carboxymethylcellulose (CMC) 100 % of control

CCOC(=O)CSc1nc2ccccc2[nH]1
inactive: dose: 100.0 mg/kg/injection, schedule: Q01DX001 (ip), vehicle: saline with Tween-80 97 % of control | dose: 200.0 mg/kg/injection, schedule: Q01DX001 (ip), vehicle: saline with Tween-80 98 % of control | dose: 400.0 mg/kg/injection, schedule: Q01DX001 (ip), vehicle: saline with Tween-80 93 % of control

Cc1cc(C)n(/N=C/c2ccccn2)c(=O)c1C#N
inactive: [1] 94 % of control | [2] 97 % of control | [3] 97 % of control | [4] 97 % of control | [5] 100 % of control | [6] 102 % of control

CCCCS(=O)(=O)N1CC(C)OC(C)C1 (stereo unspecified)
inactive: [7] 97 % of control | [8] 108 % of control | [9] 97 % of control

COC(=O)C1CC(=O)c2ccc(OC)cc21 (stereo unspecified)
inactive: [2] 102 % of control | [4] 92 % of control | [6] 100 % of control

COC(=O)C([CH2][Sn]([c]1ccccc1)([c]1ccccc1)[c]1ccccc1)NC(=O)Cc1ccccc1 (stereo unspecified)
inactive: [10] 96 % of control | [11] 100 % of control | dose: 200.0 mg/kg/injection, schedule: Q01DX009 (ip), vehicle: saline 100 % of control

NC(N)=NCCc1ccc(Cl)cc1
inactive: dose: 50.0 mg/kg/injection, schedule: Q01DX001 (ip), vehicle: Klucel (hydroxypropylcellulose) (HPC) 102 % of control

C=CCNC(=S)Nc1cccc(OC(=O)NC(C)(C)C)c1
inactive: [12] 90 % of control | [13] 90 % of control | [14] 92 % of control

N#Cc1nccnc1Cl
inactive: dose: 12.5 mg/kg/injection, schedule: Q04DX003 (ip), vehicle: saline with Tween-80 96 % of control | dose: 25.0 mg/kg/injection, schedule: Q01DX009 (ip), vehicle: other 95 % of control | dose: 25.0 mg/kg/injection, schedule: Q04DX003 (ip), vehicle: saline with Tween-80 99 % of control | dose: 50.0 mg/kg/injection, schedule: Q01DX009 (ip), vehicle: other 93 % of control | dose: 50.0 mg/kg/injection, schedule: Q04DX003 (ip), vehicle: saline with Tween-80 86 % of control | dose: 100.0 mg/kg/injection, schedule: Q01DX009 (ip), vehicle: other 109 % of control

NCC(=O)c1ccc(OC(=O)c2ccccc2)cc1
inactive: dose: 100.0 mg/kg/injection, schedule: Q01DX009 (ip), vehicle: saline with Tween-80 92 % of control | [15] 95 % of control | dose: 200.0 mg/kg/injection, schedule: Q01DX009 (ip), vehicle: saline with Tween-80 94 % of control | [16] 95 % of control | dose: 400.0 mg/kg/injection, schedule: Q01DX009 (ip), vehicle: saline with Tween-80 103 % of control | [17] 96 % of control

Cc1c(O)cc2c(c1O)C(=O)CC(c1ccc(O)cc1)O2 (stereo unspecified)
inactive: [7] 91 % of control | [8] 87 % of control | [9] 108 % of control

O=S(=O)(Cc1ccccc1)N1CCCCC1
inactive: [7] 99 % of control | [8] 99 % of control

CC(=O)OS(C)(=O)=O
inactive: dose: 50.0 mg/kg/injection, schedule: Q01DX009 (ip), vehicle: Klucel (hydroxypropylcellulose) (HPC) 100 % of control | [12] 100 % of control | [18] 105 % of control

CN(C(=O)N(C)S(=O)(=O)c1ccccc1)S(=O)(=O)c1ccccc1
inactive: [1] 100 % of control | [3] 101 % of control | [5] 94 % of control

O=P(O)(c1ccccc1)c1cccc(Cl)c1
inactive: [15] 100 % of control | [16] 91 % of control | [17] 94 % of control

CC(=O)CC(C)=Nc1ccc([N+](=O)[O-])cc1.CC(=O)CC(C)=Nc1ccc([N+](=O)[O-])cc1.[Cu]
inactive: dose: 12.5 mg/kg/injection, schedule: Q01DX001 (ip), vehicle: saline with Tween-80 93 % of control | dose: 25.0 mg/kg/injection, schedule: Q01DX001 (ip), vehicle: saline with Tween-80 88 % of control | dose: 50.0 mg/kg/injection, schedule: Q01DX001 (ip), vehicle: saline with Tween-80 91 % of control

C1CC2OC2CCC2OC12 (stereo unspecified)
inactive: [19] 95 % of control | [20] 106 % of control | [21] 101 % of control

C(=Nc1ccc2c3c(cccc13)-c1ccccc1-2)c1ccc2c(c1)OCO2
inactive: [19] 101 % of control | [20] 97 % of control | [21] 94 % of control

CCCCOP(=O)(/C=C(\C#N)C(=O)OCC)OCCCC
inactive: [18] 87 % of control | dose: 200.0 mg/kg/injection, schedule: Q04DX003 (ip), vehicle: Klucel (hydroxypropylcellulose) (HPC) 103 % of control | dose: 400.0 mg/kg/injection, schedule: Q04DX003 (ip), vehicle: Klucel (hydroxypropylcellulose) (HPC) 98 % of control

CC(=NCC(=O)O)c1ccccc1
inactive: dose: 25.0 mg/kg/injection, schedule: Q01DX009 (ip), vehicle: saline 104 % of control | [10] 94 % of control | [11] 90 % of control | [22] 100 % of control

OCC1OC(OCC2OC(OC3(CO)OC(CO)C(O)C3O)C(O)C(O)C2O)C(O)C(O)C1O (stereo unspecified)
inactive: [22] 101 % of control | dose: 200.0 mg/kg/injection, schedule: Q04DX003 (ip), vehicle: saline 106 % of control | dose: 400.0 mg/kg/injection, schedule: Q04DX003 (ip), vehicle: saline 104 % of control

O=C(NCCCCCCNC(=O)Nc1ccccc1F)Nc1ccccc1F
inactive: [12] 100 % of control | [13] 89 % of control | [14] 92 % of control
